Assay results taken from US20130324412A1, “N-ALKOXYAMIDES OF 6-(SUBSTITUTED PHENYL)-4-AMINOPICOLINATES AND 2-(SUBSTITUTED PHENYL)-6-AMINO-4-PYRIMIDINECARBOXYLATES AND THEIR USE AS SELECTIVE HERBICIDES FOR CROPS” (DOW AGROSCIENCES LLC, priority 2009, published 2013).

Tests used:
Assay type in all cases: in vivo
[1] = test system: pigweed, redroot (Amaranthus retroflexus); experiment: Postemergence herbicidal activity in corn, redroot pigweed; conditions: corn test, visual rating after 21 d, probit analysis, dose to kill or control 80 percent
Experimental: (§1) Seeds of corn and the desired weed species were planted in Sun Gro MetroMix 360 planting mixture, which typically has a pH of 6.0 to 6.8 and an organic matter content of about 30 percent, in plastic pots with a surface area of 95 cm^2. When required to ensure good germination and healthy plants, a fungicide treatment and/or other chemical or physical treatment was applied. The plants were grown for 7-21 d in a greenhouse with an approximate 15-h photoperiod which was maintained at about 23-29° C. during the day and 22-28° C. during the night. Nutrients and water were added on a regular basis and supplemental lighting was provided with overhead metal halide 1000-Watt lamps as necessary. The corn plants were utilized for testing when they reached the second true leaf stage. The weed species were utilized at the first or second true leaf stage.
(§2) A weighed amount, determined by the highest rate to be tested, of each test compound was dissolved in 4 mL of a 97:3 v/v mixture of acetone and DMSO to obtain concentrated stock solutions. […] The concentrated stock solutions obtained were diluted with 20 mL of an aqueous mixture containing acetone, water, isopropyl alcohol, DMSO, Atplus 411F crop oil concentrate, and Triton X-155 surfactant in a 48.5:39:10:1.5:1.0:0.02 v/v ratio to obtain spray solutions containing the highest application rates. […]
(§3) The treated plants and control plants were placed in a greenhouse as described above and watered by sub-irrigation to prevent wash-off of the test compounds. After 21 d, the condition of the test plants as compared with that of the untreated plants was determined visually and scored on a scale of 0 to 100 percent where 0 corresponds to no injury and 100 corresponds to complete kill. […]

[2] = test system: velvetleaf (Abutilon theophrasti); experiment: General postemergence herbicidal activity, velvetleaf; conditions: post-emergence, 336 h, postemergence, after 14 d, 0 = no injury, 100 = complete kill, read-out: ABUTH % Visual Injury; for pest or weed control at 140 g/ha: 140 g ai/ha; for pest or weed control at 70 g/ha: 70 g ai/ha
How it was run: (§4)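 Greenhouse plants at first to second true leaf stage sprayed overhead at 187 L/ha in acetone/DMSO with crop oil concentrate and surfactant, at a high rate plus ½× to 1/16× serial dilutions. Injury rated visually after 14 d against solvent-blank controls, 0 (none) to 100% (complete kill).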

[3] = test system: lambsquarters (Chenopodium album); experiment: Postemergence herbicidal activity in corn, lambsquarters; conditions: corn test, visual rating after 21 d, probit analysis, dose to kill or control 80 percent
Experimental: as §1, §2, §3

[4] = test system: corn (Zea mays); experiment: General postemergence herbicidal activity, corn; conditions: post-emergence, 336 h, postemergence, after 14 d, 0 = no injury, 100 = complete kill, read-out: ZEAMX % Visual Injury; for plant injury at 140 g/ha: 140 g ai/ha; for plant injury at 70 g/ha: 70 g ai/ha
How it was run: as §4

[5] = test system: wild buckwheat (Polygonum convululus); experiment: Postemergence herbicidal activity in corn, wild buckwheat; conditions: corn test, visual rating after 21 d, probit analysis, dose to kill or control 80 percent
Experimental: as §1, §2, §3

[6] = test system: wild buckwheat (Polygonum convululus); experiment: General postemergence herbicidal activity, wild buckwheat; conditions: post-emergence, 336 h, postemergence, after 14 d, 0 = no injury, 100 = complete kill, read-out: POLCO % Visual Injury; for pest or weed control at 140 g/ha: 140 g ai/ha; for pest or weed control at 70 g/ha: 70 g ai/ha
How it was run: as §4

[7] = test system: sicklepod (Casia obtusifolia); experiment: Postemergence herbicidal activity in corn, sicklepod; conditions: corn test, visual rating after 21 d, probit analysis, dose to kill or control 80 percent
Experimental: as §1, §2, §3

[8] = test system: corn (Zea mays); experiment: Postemergence herbicidal activity in corn, crop; conditions: visual rating after 21 d, probit analysis, dose to kill or control 20 percent
Experimental: as §1, §2, §3

[9] = test system: lambsquarters (Chenopodium album); experiment: General postemergence herbicidal activity, lambsquarters; conditions: post-emergence, 336 h, postemergence, after 14 d, 0 = no injury, 100 = complete kill, read-out: CHEAL % Visual Injury; for pest or weed control at 140 g/ha: 140 g ai/ha; for pest or weed control at 70 g/ha: 70 g ai/ha
How it was run: as §4

[10] = test system: purple deadnettle (Lamium purpureum); experiment: Postemergence herbicidal activity in sugar beet, purple deadnettle; design: unit not given here; conditions: sugar beet test, visual rating after 21 d, probit analysis, dose to kill or control 80 percent
Experimental: as §1, with “sugar beet” for “corn”, “MetroMix®” for “MetroMix”, “15-28” for “7-21”, “third or fourth” for “second”, “fourth” for “first or second”
(§5) A weighed amount, determined by the highest rate to be tested, of each test compound was dissolved in 4 mL of a 97:3 v/v mixture of acetone and DMSO to obtain concentrated stock solutions. […] The concentrated stock solutions obtained were diluted with 20 mL of an aqueous mixture containing acetone, water and Agri-Dex crop oil concentrate, in a 16.7:82.1:1.25 v/v ratio to obtain spray solutions containing the highest application rates. Additional application rates were obtained by serial dilution of 12 mL of the high rate solution into a solution containing 2 mL of 97:3 v/v mixture of acetone and DMSO and 10 mL of an aqueous mixture containing acetone, water and Agri-Dex crop oil concentrate, in a 16.7:82.1:1.25 v/v ratio to obtain ½×, ¼×, ⅛× and 1/16× rates of the high rate. Compound requirements are based upon a 12 mL application volume at a rate of 187 L/ha. Formulated compounds were applied to the plant material with an overhead Mandel track sprayer equipped with 8002E nozzles calibrated to deliver 187 L/ha over an application area of 0.503 m^2 at a spray height of 18 inches (43 cm) above the average plant canopy height. Control plants were sprayed in the same manner with the solvent blank.
as §3

[11] = test system: lambsquarters (Chenopodium album); experiment: Postemergence herbicidal activity in sugar beet, lambsquarters; design: unit not given here; conditions: sugar beet test, visual rating after 21 d, probit analysis, dose to kill or control 80 percent
Experimental: as §1, with “sugar beet” for “corn”, “MetroMix®” for “MetroMix”, “15-28” for “7-21”, “third or fourth” for “second”, “fourth” for “first or second”
as §5
(§6) The treated plants and control plants were placed in a greenhouse as described above and watered by sub-irrigation to prevent wash-off of the test compounds. After 21 d, the condition of the test plants as compared with that of the untreated plants was determined visually and scored on a scale of 0 to 100 percent where 0 corresponds to no injury and 100 corresponds to complete kill.
(§7) By applying the well-accepted probit analysis as described by J. Berkson in Journal of the American Statistical Society 1953, 48, 565, and by D. Finney in “Probit Analysis” Cambridge University Press (1952), the above data can be used to calculate GR20 and GR80 values, which are defined as growth reduction factors that correspond to the effective dose of herbicide required to kill or control 20 percent or 80 percent, respectively, of a target plant.

[12] = test system: sugar beet (Beta vulgaris); experiment: Postemergence herbicidal activity in sugar beet, crop; design: unit not given here; conditions: visual rating after 21 d, probit analysis, dose to kill or control 20 percent
Experimental: as §1, with “sugar beet” for “corn”, “MetroMix®” for “MetroMix”, “15-28” for “7-21”, “third or fourth” for “second”, “fourth” for “first or second”
as §5, §6, §7

[13] = test system: purple deadnettle (Lamium purpureum); experiment: Postemergence herbicidal activity in oilseed rape (canola), purple deadnettle; design: unit not given here; conditions: oilseed rape (canola) test, visual rating after 21 d, probit analysis, dose to kill or control 80 percent
Experimental: as §1, with “oilseed rape (canola)” for “corn”, “MetroMix®” for “MetroMix”, “15-28” for “7-21”, “third or fourth” for “second”, “fourth” for “first or second”
as §5, §6, §7

[14] = test system: winter oilseed rape (canola) (Brassica napus); experiment: Postemergence herbicidal activity in oilseed rape (canola), crop; design: unit not given here; conditions: visual rating after 21 d, probit analysis, dose to kill or control 20 percent
Experimental: as §1, with “oilseed rape (canola)” for “corn”, “MetroMix®” for “MetroMix”, “15-28” for “7-21”, “third or fourth” for “second”, “fourth” for “first or second”
as §5, §6, §7

[15] = test system: lambsquarters (Chenopodium album); experiment: Postemergence herbicidal activity in oilseed rape (canola), lambsquarters; design: unit: g ai/ha; conditions: oilseed rape (canola) test, visual rating after 21 d, probit analysis, dose to kill or control 80 percent
Experimental: as §1, with “oilseed rape (canola)” for “corn”, “MetroMix®” for “MetroMix”, “15-28” for “7-21”, “third or fourth” for “second”, “fourth” for “first or second”
as §5, §6, §7

SMILES | pest or weed control at 140 g/ha [2] | plant injury at 140 g/ha [4] | pest or weed control at 140 g/ha [6] | pest or weed control at 140 g/ha [9] | LAMPU GR80 [10] | CHEAL GR80 [11] | BEAVA GR20 [12] | LAMPU GR80 [13] | BRSNW GR20 [14] | CHEAL GR80 [15] | pest or weed control at 70 g/ha [2] | plant injury at 70 g/ha [4] | pest or weed control at 70 g/ha [6] | pest or weed control at 70 g/ha [9] | also measured
C=CCONC(=O)c1nc(-c2ccc(Cl)c(OC)c2F)cc(N)c1Cl [Compound 3, N-(2-Propenyloxy)-4-amino-3-chloro-6-(4-chloro-2-fluoro-3-methoxyphenyl)picolinamide] | 100% | 0% | 100% | 100% | – | – | – | – | – | – | – | – | – | – | AMARE GR80 [1]: 5 g ai/ha; CHEAL GR80 [3]: <4 g ai/ha; POLCO GR80 [5]: <4 g ai/ha; CASOB GR80 [7]: 5 g ai/ha; ZEAMX GR20 [8]: >35 g ai/ha
CCONC(=O)c1nc(-c2ccc(Cl)c(OC)c2F)cc(N)c1Cl [Compound 4, 4-Amino-3-chloro-6-(4-chloro-2-fluoro-3-methoxyphenyl)-N-ethoxypicolinamide] | 100% | 0% | 100% | 100% | <4.38 | <8.75 | >140 | <4.38 | >140 | 11 | – | – | – | – | –
C/C=C/CONC(=O)c1nc(-c2ccc(Cl)c(OC)c2F)cc(N)c1Cl [Compound 30, (E)-4-Amino-N-(2-butenyloxy)-3-chloro-6-(4-chloro-2-fluoro-3-methoxy-phenyl)picolinamide] | – | – | – | – | <4.38 | <8.75 | >140 | <4.38 | >70 | <8.75 | 100% | 50% | 100% | 100% | –
COc1c(Cl)ccc(-c2cc(N)c(Cl)c(C(=O)NOC/C=C/Cl)n2)c1F [Compound 31, (E)-4-Amino-3-chloro-6-(4-chloro-2-fluoro-3-methoxyphenyl)-N-(3-chloro-2-propenyl-oxy)picolinamide] | – | – | – | – | – | <8.75 | >140 | – | – | – | 100% | 5% | 100% | 100% | –
C=CCONC(=O)c1nc(-c2ccc(Cl)c(OC)c2F)c(F)c(N)c1Cl [Compound 39, N-(2-Propenyloxy)-4-amino-3-chloro-6-(4-chloro-2-fluoro-3-methoxyphenyl)-5-fluoropicolinamide] | – | – | – | – | – | – | – | <8.75 | >70 | 49 | – | – | – | – | pest or weed control at 17.5 g/ha ([2]; 17.5 g ai/ha): 100%; plant injury at 17.5 g/ha ([4]; 17.5 g ai/ha): 45%; pest or weed control at 17.5 g/ha ([6]; 17.5 g ai/ha): 100%; pest or weed control at 17.5 g/ha ([9]; 17.5 g ai/ha): 100%
COc1c(Cl)ccc(-c2cc(N)c(Cl)c(C(=O)NOCc3cnc(Cl)s3)n2)c1F [Compound 41, 4-Amino-3-chloro-6-(4-chloro-2-fluoro-3-methoxyphenyl)-N-((2-chlorothiazol-5-yl)-methoxy)picolinamide] | – | – | – | – | <4.38 | 30 | 136 | – | – | – | 100% | 5% | 100% | 100% | –
COc1c(Cl)ccc(-c2nc(C(=O)NOC3CCCCO3)c(Cl)c(N)c2F)c1F (centres unmarked) [Compound 48, 4-Amino-3-chloro-6-(4-chloro-2-fluoro-3-methoxyphenyl)-5-fluoro-N-(tetrahydro-2H-pyran-2-yloxy)picolinamide] | 100% | 0% | 100% | 100% | – | – | – | <4.38 | >70 | 18 | – | – | – | – | –
